Test results from ChEMBL document CHEMBL3885861, “Open TG-GATES”.

Species on record: Rattus norvegicus
Experiment: Open TG-GATES - Regimen: Daily Repeat
Format: toxicity, organism-based, Sprague-Dawley
Set-up: regimen Daily Repeat, gender Male, age 6 weeks
Conditions: in vivo, po, 0 mg/kg, route gavage, dose level Control; for APTT / Bas / Eos / Fbg / Hb / Ht / Lym / MCH / MCHC / MCV / Mono / Neu / PT / Plat / RBC / Ret / WBC: tissue Blood; for KIDNEY_L / KIDNEY_R / KIDNEY_TOTAL: tissue Kidney; for LIVER: tissue Liver; for A/G / ALP / ALT / AST / BUN / CRE / Ca / Cl / DBIL / GLC / IP / K / LDH / Na / PL / RALB / TBIL / TC / TG / TP / gamma-GTP: tissue Plasma

## CC[C@@H](CO)NCCN[C@@H](CC)CO [ETHAMBUTOL]
72 h, time 3 day
  TERMINAL_BW: 245.1 g
  APTT: 21.9 s
  Bas: 0%
  Eos: 1%
  Fbg: 308.2 mg/dL
  Hb: 13.6 g/dL
  Ht: 38.8%
  Lym: 80.6%
  MCH: 21.9 pg
  MCHC: 34.9%
  MCV: 62.6 fL
  Mono: 3.2%
  Neu: 13.8%
  PT: 16.1 s
  Plat: 127.2 x10_4/uL
  RBC: 619.8 x10_4/ul
  Ret: 6.5%
  WBC: 109.6 x10_2/uL
  KIDNEY_L: 1.1 g
  KIDNEY_R: 1.1 g
  KIDNEY_TOTAL: 2.2 g
  LIVER: 11.5 g
  A/G: 1.1
  ALP: 1450 IU/L
  ALT: 45.4 IU/L
  AST: 68.6 IU/L
  BUN: 19.2 mg/dL
  CRE: 0.2 mg/dL
  Ca: 10.9 mg/dL
  Cl: 107 meq/L
  DBIL: 0 mg/dL
  GLC: 194.6 mg/dL
  IP: 7.6 mg/dL
  K: 4.4 meq/L
  LDH: 172.4 IU/L
  Na: 140.2 meq/L
  PL: 155.6 mg/dL
  RALB: 3 g/dL
  TBIL: 0.004 mg/dL
  TC: 78.4 mg/dL
  TG: 123.2 mg/dL
  TP: 5.7 g/dL
  gamma-GTP: 1.4 IU/L
[…], time 7 day
  TERMINAL_BW: 267.6 g
  APTT: 23.2 s
  Bas: 0%
  Eos: 1%
  Fbg: 338.4 mg/dL
  Hb: 14.1 g/dL
  Ht: 41.1%
  Lym: 83%
  MCH: 21.1 pg
  MCHC: 34.3%
  MCV: 61.4 fL
  Mono: 2.2%
  Neu: 12.8%
  PT: 15.4 s
  Plat: 110.1 x10_4/uL
  RBC: 671 x10_4/ul
  Ret: 5.1%
  WBC: 113 x10_2/uL
  KIDNEY_L: 1.1 g
  KIDNEY_R: 1.1 g
  KIDNEY_TOTAL: 2.2 g
  LIVER: 12.3 g
  A/G: 1.1
  ALP: 1523.4 IU/L
  ALT: 43 IU/L
  AST: 69.6 IU/L
  BUN: 17.8 mg/dL
  CRE: 0.2 mg/dL
  Ca: 10.5 mg/dL
  Cl: 106.8 meq/L
  DBIL: 0 mg/dL
  GLC: 198 mg/dL
  IP: 7.3 mg/dL
  K: 4.1 meq/L
  LDH: 200.2 IU/L
  Na: 142.2 meq/L
  PL: 147.6 mg/dL
  RALB: 3 g/dL
  TBIL: 0.006 mg/dL
  TC: 75.4 mg/dL
  TG: 91.6 mg/dL
  TP: 5.6 g/dL
  gamma-GTP: 1.8 IU/L
[…], time 14 day
  TERMINAL_BW: 330.7 g
  APTT: 21.6 s
  Bas: 0%
  Eos: 0.8%
  Fbg: 321.6 mg/dL
  Hb: 14.4 g/dL
  Ht: 42.1%
  Lym: 80%
  MCH: 20.5 pg
  MCHC: 34.2%
  MCV: 60.1 fL
  Mono: 2.4%
  Neu: 15%
  PT: 16.3 s
  Plat: 103.5 x10_4/uL
  RBC: 701.6 x10_4/ul
  Ret: 4.4%
  WBC: 116.4 x10_2/uL
  KIDNEY_L: 1.3 g
  KIDNEY_R: 1.3 g
  KIDNEY_TOTAL: 2.6 g
  LIVER: 14.5 g
  A/G: 1.2
  ALP: 1341.2 IU/L
  ALT: 41 IU/L
  AST: 72.6 IU/L
  BUN: 19.6 mg/dL
  CRE: 0.2 mg/dL
  Ca: 10.5 mg/dL
  Cl: 106.4 meq/L
  DBIL: 0 mg/dL
  GLC: 196.6 mg/dL
  IP: 7.2 mg/dL
  K: 4 meq/L
  LDH: 191.2 IU/L
  Na: 141.6 meq/L
  PL: 139.6 mg/dL
  RALB: 3 g/dL
  TBIL: 0 mg/dL
  TC: 64.2 mg/dL
  TG: 116.4 mg/dL
  TP: 5.7 g/dL
  gamma-GTP: 1.6 IU/L
[…], time 28 day
  TERMINAL_BW: 391.8 g
  APTT: 26.2 s
  Bas: 0%
  Eos: 1.2%
  Fbg: 315.8 mg/dL
  Hb: 14.7 g/dL
  Ht: 42.6%
  Lym: 83.4%
  MCH: 19.3 pg
  MCHC: 34.4%
  MCV: 56 fL
  Mono: 2.6%
  Neu: 11.4%
  PT: 15.6 s
  Plat: 106 x10_4/uL
  RBC: 761.2 x10_4/ul
  Ret: 3.1%
  WBC: 131.5 x10_2/uL
  KIDNEY_L: 1.4 g
  KIDNEY_R: 1.4 g
  KIDNEY_TOTAL: 2.8 g
  LIVER: 16.5 g
  A/G: 1
  ALP: 977.2 IU/L
  ALT: 41 IU/L
  AST: 67 IU/L
  BUN: 19.4 mg/dL
  CRE: 0.3 mg/dL
  Ca: 10.3 mg/dL
  Cl: 105.8 meq/L
  DBIL: 0 mg/dL
  GLC: 208 mg/dL
  IP: 6.8 mg/dL
  K: 4.1 meq/L
  LDH: 156 IU/L
  Na: 142.2 meq/L
  PL: 143.6 mg/dL
  RALB: 3.1 g/dL
  TBIL: 0.008 mg/dL
  TC: 72.8 mg/dL
  TG: 100.8 mg/dL
  TP: 6.2 g/dL
  gamma-GTP: 2.4 IU/L
